# Target: T1, rat NaP2b (SLC34A2) (Rattus norvegicus, UniProt Q9JJ09)
# T1 construct: host or cells: HEK293
# T1 sequence (Q9JJ09 1-695): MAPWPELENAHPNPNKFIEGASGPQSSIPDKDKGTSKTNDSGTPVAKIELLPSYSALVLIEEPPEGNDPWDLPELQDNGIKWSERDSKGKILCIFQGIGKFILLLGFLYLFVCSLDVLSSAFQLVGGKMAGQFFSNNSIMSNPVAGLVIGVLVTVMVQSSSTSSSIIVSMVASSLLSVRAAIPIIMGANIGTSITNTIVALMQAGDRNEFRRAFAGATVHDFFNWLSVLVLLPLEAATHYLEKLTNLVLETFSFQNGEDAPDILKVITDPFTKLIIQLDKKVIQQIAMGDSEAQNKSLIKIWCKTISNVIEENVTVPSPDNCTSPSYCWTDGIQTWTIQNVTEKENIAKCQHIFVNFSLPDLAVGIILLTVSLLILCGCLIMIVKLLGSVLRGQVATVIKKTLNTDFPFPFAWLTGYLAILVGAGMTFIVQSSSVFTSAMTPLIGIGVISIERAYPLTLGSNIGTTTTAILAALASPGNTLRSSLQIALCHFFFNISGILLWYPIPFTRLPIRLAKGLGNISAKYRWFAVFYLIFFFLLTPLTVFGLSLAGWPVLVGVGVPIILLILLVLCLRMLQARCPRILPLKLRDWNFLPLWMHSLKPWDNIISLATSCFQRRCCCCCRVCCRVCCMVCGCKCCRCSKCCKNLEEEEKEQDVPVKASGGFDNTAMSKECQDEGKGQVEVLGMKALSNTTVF
# Assay: Inhibition of NaP2b-mediated Pi (33P) uptake in transfected HEK293 cells, rat NaP2b
# Assay type: cell-based
# Details: HEK293 cells transfected with rat NaP2b, 100 uM phosphate, 0.1 nM to 30 uM, read-out: pIC50 range for rat Nap2b (converted)
# Experimental: (§1) HEK293 cells were obtained from the American Type Culture collection and propagated per their instructions. Expression clones for rat and human NaP2b (SLC34A2) were obtained from Open Biosystems (Catalog numbers MRN1768-9510282, and MHS1010-99823026, respectively). The sequence of the human protein was mutated to insert a threonine after residue 37, and to introduce a N39D mutation.
# (§2) Cells were seeded into 96-well plates at 25,000 cells/well and cultured overnight. Lipofectamine 2000 (Invitrogen) was used to introduce the NaP2b cDNA, and the cells were allowed to approach confluence during a second overnight incubation. […] Cells were then overlayed with either choline uptake buffer or sodium uptake buffer (14 mM Tris, 137 mM sodium chloride, 5.4 mM KCl, 2.8 mM CaCl2, 1.2 mM MgSO4, 100 uM KH2PO4, PiT-silencing agent, 1 mg/mL Bovine Serum Albumin, pH 7.4) containing 6-9 uCi/mL ^33P orthophosphoric acid (Perkin Elmer) and test compound. Each compound was tested at twelve concentrations ranging from 0.1 nM to 30 uM. Assays were run in duplicate.
# Cells were lysed by addition of 20 μL 0.1% Tween 80 followed by 100 μL scintillation fluid, and counted using a TopCount (Perkin Elmer).
# (§3) pIC50 (the negative log of the […]) values of the test compounds were calculated using GraphPad Prism.
row,SMILES,IC50 [nM]
1,"CC(=O)NC1CCN(Cc2cccc(C(=O)Nc3ccc(N4CCCCC4)cc3-c3cc(C(=O)NCc4cccc(C(F)(F)F)c4)ccn3)c2)C1 (stereo in doubt) [Example 48, (S)-2-(2-(3-((3-Acetamidopyrrolidin-1-yl)methyl)benzamido)-5-(piperidin-1-yl)phenyl)-N-(3-(trifluoromethyl)benzyl)isonicotinamide]",1000 to 7940
2,"COc1ccc(NC(=O)c2cccc(CSCCC(=O)O)c2)c(-c2cc(C(=O)NCc3cccc(C(F)(F)F)c3)ccn2)c1 [Example 30, 3-((3-((4-Methoxy-2-(4-((3-(trifluoromethyl)benzyl)carbamoyl)pyridin-2-yl)phenyl)carbamoyl)benzyl)thio)propanoic acid]",1000 to 7940
3,"CCN(CC)c1ccc(NC(=O)c2cccc(C(=O)N(C)CCN(C)CCOCCOCCOCCNC(=O)C(C)(C)C)c2)c(-c2cc(C(=O)NCc3cccc(C(F)(F)F)c3)ccn2)c1 [Example 346, N^1-(4-(diethylamino)-2-(4-(3-(trifluoromethyl)benzylcarbamoyl)pyridin-2-yl)phenyl)-N^3-methyl-N^3-(3,17,17-trimethyl-16-oxo-6,9,12-trioxa-3,15-diazaoctadecyl)isophthalamide]",1000 to 7940
4,"CC(=O)N1CCN(CCN(C)Cc2cccc(C(=O)Nc3ccc(N4CCCCC4)cc3-c3cc(C(=O)NCc4ccccc4)ccn3)c2)CC1 [Example 41, 2-(2-(3-(((2-(4-Acetylpiperazin-1-yl)ethyl)(methyl)amino)methyl)benzamido)-5-(piperidin-1-yl)phenyl)-N-benzylisonicotinamide]",10000 to 31600

# Next, values leading:
row,IC50 [nM],SMILES
1,1000 to 7940,O=C(O)CCSCc1cccc(C(=O)Nc2ccc(N3CCCCC3)cc2-c2cc(C(=O)NCc3ccccc3)ccn2)c1 [Example 1.4]
2,1000 to 7940,"CCCN(CCC)c1ccc(NC(=O)c2cccc(CSCCC(=O)O)c2)c(-c2cc(C(=O)NCc3cccc(C(F)(F)F)c3)ccn2)c1 [Example 19, 3-((3-((4-(Dipropylamino)-2-(4-((3-(trifluoromethyl)benzyl)carbamoyl)pyridin-2-yl)phenyl)carbamoyl)benzyl)thio)propanoic acid]"
3,1000 to 7940,"CN(CCN1CCOCC1)C(=O)c1cccc(C(=O)Nc2ccc(N3CCCCC3)cc2-c2cc(-c3cn(Cc4ccccc4)nn3)ccn2)c1 [Example 24, N1-(2-(4-(1-Benzyl-1H-1,2,3-triazol-4-yl)pyridin-2-yl)-4-(piperidin-1-yl)phenyl)-N3-methyl-N3-(2-morpholinoethyl)isophthalamide]"
4,1000 to 7940,"CCN(CC)c1ccc(NC(=O)c2cccc(C(=O)N(C)CCN3CCCN(C(=O)OCCOCCOCCOCCOCCOCCOCCOCCOCCOCCOCCOC)CC3)c2)c(-c2cc(C(=O)N[C@H]3CCCc4ccccc43)ccn2)c1 [Example 199, (S)-2,5,8,11,14,17,20,23,26,29,32-undecaoxatetratriacontan-34-yl 4-(2-(3-((4-(diethylamino)-2-(4-((1,2,3,4-tetrahydronaphthalen-1-yl)carbamoyl)pyridin-2-yl)phenyl)carbamoyl)-N-methylbenzamido)ethyl)-1,4-diazepane-1-carboxylate]"
5,1000 to 7940,"CC(=O)N1CCN(Cc2cccc(C(=O)Nc3ccc(N4CCCCC4)cc3-c3cc(C(=O)NCc4cccc(C(F)(F)F)c4)ccn3)c2)CC1 [Example 50, 2-(2-(3-((4-Acetylpiperazin-1-yl)methyl)benzamido)-5-(piperidin-1-yl)phenyl)-N-(3-(trifluoromethyl)benzyl)isonicotinamide]"

# Target: T2, human NaP2b (SLC34A2) (Homo sapiens, UniProt O95436)
# T2 construct: host or cells: HEK293
# T2 sequence (O95436 1-690): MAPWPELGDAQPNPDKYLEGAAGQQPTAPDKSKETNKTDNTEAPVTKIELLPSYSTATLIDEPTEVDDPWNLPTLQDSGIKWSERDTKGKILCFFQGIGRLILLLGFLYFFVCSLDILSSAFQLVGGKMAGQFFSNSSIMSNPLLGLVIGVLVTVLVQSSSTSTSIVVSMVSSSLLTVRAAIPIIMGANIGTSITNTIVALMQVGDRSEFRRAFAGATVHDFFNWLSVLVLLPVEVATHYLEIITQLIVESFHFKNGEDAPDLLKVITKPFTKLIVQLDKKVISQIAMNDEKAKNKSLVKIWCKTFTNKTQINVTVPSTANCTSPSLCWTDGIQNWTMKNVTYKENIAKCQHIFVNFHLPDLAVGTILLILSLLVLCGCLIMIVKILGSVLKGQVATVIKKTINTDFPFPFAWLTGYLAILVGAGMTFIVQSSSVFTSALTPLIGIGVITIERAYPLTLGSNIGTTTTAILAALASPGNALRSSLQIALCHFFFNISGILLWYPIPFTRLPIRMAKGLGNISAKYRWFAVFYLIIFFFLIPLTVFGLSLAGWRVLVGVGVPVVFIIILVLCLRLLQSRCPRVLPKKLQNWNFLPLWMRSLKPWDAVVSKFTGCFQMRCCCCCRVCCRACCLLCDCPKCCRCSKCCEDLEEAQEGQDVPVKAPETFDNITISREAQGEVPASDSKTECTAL
# Assay: Inhibition of NaP2b-mediated Pi (33P) uptake in transfected HEK293 cells, human NaP2b
# Assay type: cell-based
# Details: HEK293 cells transfected with human NaP2b, 100 uM phosphate, 0.1 nM to 30 uM, read-out: pIC50 range for human NaP2b (converted)
# Experimental: as §1
# The rate of phosphate (Pi) uptake into HEK293 cells was measured using a modification of the method described by Mohrmann et al. (Mohrmann, I., Mohrmann, M., Biber, J., and Murer, H. (1986) Am. J. Phys. 250(3 Pt 1):G323-30.) Transfected HEK293 cells were treated with a pharmacological agent to minimize endogenous PiT-mediated phosphate transport activity, such that the only remaining sodium-dependent phosphate transport activity is that which was bestowed by introduction of the NaP2b genes.
# as §2
# After incubation for 3-30 minutes at room temperature, assay mixtures were removed, and the cells were washed twice with ice cold stop solution (137 mM sodium chloride, 14 mM Tris, pH 7.4). Cells were lysed by addition of 20 μL 0.1% Tween 80 followed by 100 μL scintillation fluid, and counted using a TopCount (Perkin Elmer).
# as §3
row,IC50 [nM],SMILES
1,1000 to 7940,"CN(CCN1CCC[C@H]1C(=O)N(C)CCOCCOCCOCCC(=O)OC(C)(C)C)C(=O)c1cccc(C(=O)Nc2ccc(N3CCCCC3)cc2-c2cc(C(=O)N[C@H]3CCCc4ccccc43)ccn2)c1 [Example 190, tert-Butyl 2-methyl-1-((S)-1-(2-(N-methyl-3-((4-(piperidin-1-yl)-2-(4-(((S)-1,2,3,4-tetrahydronaphthalen-1-yl)carbamoyl)pyridin-2-yl)phenyl)carbamoyl)benzamido)ethyl)pyrrolidin-2-yl)-1-oxo-5,8,11-trioxa-2-azatetradecan-14-oate]"
2,1000 to 7940,"CCN(CC)c1ccc(NC(=O)c2cccc(CCCOCCOCCOCCOCCC(=O)N(C)CCOCCOCCOCCOCCOCCOCCOC)c2)c(-c2cc(C(=O)NCc3cccc(C(F)(F)F)c3)ccn2)c1 [Example 259, 2-(5-(diethylamino)-2-(3-(23-methyl-24-oxo-2,5,8,11,14,17,20,27,30,33,36-undecaoxa-23-azanonatriacontan-39-yl)benzamido)phenyl)-N-(3-(trifluoromethyl)benzyl)isonicotinamide]"
3,1000 to 7940,"CCN(CC)c1ccc(NC(=O)c2cccc(CCCOCCOCCOCCOCCNS(=O)(=O)c3ccc(CCC(=O)NCCOCCOCCOCCOCCOCCOCCOC)cc3)c2)c(-c2cc(C(=O)NCc3cccc(C(F)(F)F)c3)ccn2)c1 [Example 296, 2-(5-(diethylamino)-2-(3-(1-(4-(24-oxo-2,5,8,11,14,17,20-heptaoxa-23-azahexacosan-26-yl)phenylsulfonamido)-3,6,9,12-tetraoxapentadecan-15-yl)benzamido)phenyl)-N-(3-(trifluoromethyl)benzyl)isonicotinamide]"
4,< 1000,"CCN(CC)c1ccc(NC(=O)c2cccc(CCCOCCOCCOCCOCCNC(=O)c3cccc(CCCOCCOCCOCCOCCOCCOCCOCCOCCOC)c3)c2)c(-c2cc(C(=O)NCc3cccc(C(F)(F)F)c3)ccn2)c1 [Example 271, 2-(2-(3-(1-(3-(2,5,8,11,14,17,20,23,26-nonaoxanonacosan-29-yl)phenyl)-1-oxo-5,8,11,14-tetraoxa-2-azaheptadecan-17-yl)benzamido)-5-(diethylamino)phenyl)-N-(3-(trifluoromethyl)benzyl)isonicotinamide]"
5,< 1000,"CCN(CC)c1ccc(NC(=O)c2cccc(CCCOCCOCCOCCOCCC(=O)NCCOCCOCCOCCOCCOCCOCCOC)c2)c(-c2cc(C(=O)NCc3cccc(C(F)(F)F)c3)ccn2)c1 [Example 260, 2-(5-(diethylamino)-2-(3-(24-oxo-2,5,8,11,14,17,20,27,30,33,36-undecaoxa-23-azanonatriacontan-39-yl)benzamido)phenyl)-N-(3-(trifluoromethyl)benzyl)isonicotinamide]"

row,SMILES,IC50 [nM]
1,"O=C(O)CCOCCOCCOCCOCCCc1cccc(C(=O)Nc2ccc(OC3CCC3)cc2-c2cc(C(=O)N[C@H]3CCCc4ccccc43)ccn2)c1 [Example 285, (S)-16-(3-((4-cyclobutoxy-2-(4-((1,2,3,4-tetrahydronaphthalen-1-yl)carbamoyl)pyridin-2-yl)phenyl)carbamoyl)phenyl)-4,7,10,13-tetraoxahexadecan-1-oic acid]",< 1000

# — US9301951B2 (Ardelyx, Inc., priority 2010, dated 2016)
